Blank lines part the entries; values can stand above or below the molecule they belong to.
Tests used:
[1] = tested on: CDKN1A mRNA; assay: Quantitative real time RT-PCR of CDKN1A mRNA in T47D cells; assay type: cell-based, human; conditions: 1 μM, 16 h
Description: (§1) Around 100 genes have been identified as HIF-1 target genes that encode proteins involved in various aspects of cellular physiology. While most of these genes are regulated in a cell type-specific manner, some are induced upon HIF-1 activation in most cell types. Based on availability and potency, compound 4 (a stereoisomer of 2) was selected for follow-up studies. The effects of 4 on the expression of HIF-1 target genes cyclin dependent kinase inhibitor 1A (CDKN1A) and vascular endothelial growth factor A (VEGFA) were examined by quantitative real time RT-PCR (Figure 2). The HIF-1 activator 1,10-phen (10 μM) and the pan-HDAC inhibitor TSA (0.1 and 1 μM, respectively) were included as positive controls. […]
(§2) Figure 2 Effects of 4 and trichostatin A (TSA) on HIF-1 target gene expression. […] The levels of cyclin dependent kinase inhibitor 1A (CDKN1A) (A) and vascular endothelial growth factor (VEGF) (B) mRNA following treatments were determined by quantitative real time RT-PCR. […] The levels of cellular (C) and secreted VEGF protein (D) were determined by ELISA and normalized to the amount of cellular proteins. […]
The effects of test samples on HIF-1 target gene expression were assessed in T47D cells. To determine the levels of CDKN1A and VEGF mRNA, quantitative real-time RT-PCR was performed as described. […]

[2] = tested on: VEGF mRNA; assay: Quantitative real time RT-PCR of VEGF mRNA in T47D cells; assay type: cell-based, human; conditions: 16 h
Description: as §1, with “controls. In T47D cells, 4 and TSA each increased the levels of CDKN1A mRNA in a concentration-dependent manner (2.9-fold for 4 at 10 μM and 7.2-fold for TSA at 1 μM, Figure 2A). In contrast, neither 4 nor TSA exerted greater than 20% effect on the levels of VEGF mRNA (Figure 2B).” for “controls.”
as §2
(§3) The effects of test samples on HIF-1 target gene expression were assessed in T47D cells. To determine the levels of CDKN1A and VEGF mRNA, quantitative real-time RT-PCR was performed as described. To determine the levels of cellular and secreted VEGF proteins, T47D cells were exposed to compounds as described, the levels of VEGF proteins in the conditioned medium and cell lysate samples determined by ELISA [21], the amount of proteins in the cell lysate samples quantified using a micro BCA assay kit (Thermo Fisher Scientific, Rockford, IL, USA), and the level of VEGF proteins normalized to that of cellular proteins.

[3] = tested on: VEGF protein; assay: ELISA of cellular and secreted VEGF proteins in T47D cells; assay type: cell-based, human; conditions: normalized to cellular proteins
Description: Around 100 genes have been identified as HIF-1 target genes that encode proteins involved in various aspects of cellular physiology. While most of these genes are regulated in a cell type-specific manner, some are induced upon HIF-1 activation in most cell types. Based on availability and potency, compound 4 (a stereoisomer of 2) was selected for follow-up studies. The effects of 4 on the expression of HIF-1 target genes cyclin dependent kinase inhibitor 1A (CDKN1A) and vascular endothelial growth factor A (VEGFA) were examined by quantitative real time RT-PCR (Figure 2). The HIF-1 activator 1,10-phen (10 μM) and the pan-HDAC inhibitor TSA (0.1 and 1 μM, respectively) were included as positive controls. In T47D cells, 4 and TSA each increased the levels of CDKN1A mRNA in a concentration-dependent manner (2.9-fold for 4 at 10 μM and 7.2-fold for TSA at 1 μM, Figure 2A). In contrast, neither 4 nor TSA exerted greater than 20% effect on the levels of VEGF mRNA (Figure 2B). The gene VEGF encodes vascular endothelial growth factor A (a potent angiogenic factor) and agents that inhibit VEGF are in clinical use for cancer. The expression of cellular and secreted VEGF proteins was examined in T47D cells by ELISA assay.
Figure 2 Effects of 4 and trichostatin A (TSA) on HIF-1 target gene expression. T47D cells were exposed to 4 and TSA at the specified concentrations for 16 h. The compound 1,10-phen (10 µM) was included as a positive control. The levels of cyclin dependent kinase inhibitor 1A (CDKN1A) (A) and vascular endothelial growth factor (VEGF) (B) mRNA following treatments were determined by quantitative real time RT-PCR. Relative levels of target gene mRNA normalized to an internal control (18S rRNA) are shown as average ± standard deviation (n = 3, one representative experiment). The levels of cellular (C) and secreted VEGF protein (D) were determined by ELISA and normalized to the amount of cellular proteins. Data shown are average + standard deviation (n = 3). An asterisk “*” indicates p < 0.05 when compared to the media control.
as §3

[4] = tested on: BoM spheroids; assay: Cultrex 3D spheroid cell invasion assay; assay type: cell-based, human
Protocol: In order to form metastatic lesions, metastasis-initiating tumor cells must invade and intravasate into the lymphatic vasculature and/or blood vessels. Psammaplins were evaluated in a Cultrex® 3-D cell invasion assay that monitors the invasion and migration of tumor cells grown as spheroids, which closely model in vivo pathophysiological conditions.
Figure 5 Inhibition of bone metastatic BoM cell invasion. Tumor cell spheroids formed in a special spheroid formation extracellular matrix (ECM) were embedded in an invasion matrix containing 10% fetal bovine serum (FBS) in the presence and absence of compounds at the specified concentrations. Four days later (T96), cell invasion was recorded microscopically (the bar at the bottom right represents 100 µm).
The 3D spheroid cell invasion assay was performed using a commercial kit, following the manufacturer’s instructions (Cultrex® 3D Spheroid Cell Invasion Assay, Trevigen, Gaithersburg, MD, USA). Briefly, exponentially grown MDA-MB-231, LM, BoM, and BrM cells were trypsinized, collected, and resuspended in serum-free DMEM/F12 media. For spheroid formation, 3000 cells were added in a volume of 50 µL serum-free DMEM/F12 media with 1× spheroid formation solution/well into a pre-cooled 96-well plate. The plate was centrifuged at 100× g for 5 min at 4 °C, incubated at 37 °C for 24 h, and the spheroids imaged using an Axiovert 40 CFL microscope (Zeiss, Oberkochen, Germany). The plate was placed on ice, the invasion mix added in a volume of 50 µL/well, centrifuged at 350× g for 5 min at 4 °C, and incubated at 37 °C for 1 h. Test compounds and controls were diluted to two times the final concentrations in DMEM/F12 media supplemented with FBS (10%) and antibiotics, and added in a volume of 100 µL/well. The incubation continued for another 4 days at 37 °C and the cells/spheroids imaged (T96).

[5] = tested on: HIF-1; assay: T47D cell-based reporter assay (pHRE-luc) for HIF-1 activity; parameters: species or system human
Protocol: Cellular adaptation to hypoxia (low oxygen tension) is primarily mediated via the transcription factor hypoxia-inducible factor-1 (HIF-1), that regulates oxygen homeostasis by activating the expression of genes that increase oxygen availability and those that decrease oxygen consumption. […] In a T47D cell-based reporter assay, a lipid extract sample of the sponge Dendrilla lacunosa activated HIF-1 by 3.56-fold (NIH collection No. C025691, 10 μg mL^−1). Bioassay-guided fractionation of the extract sample (2.6 g) and chemical structure elucidation afforded five known compounds psammaplin E (1), (E,Z)-psammaplin A (2), (E,E)-psammaplin K (3), (E,E)-psammaplin A (4), and bisaprasin (5). To determine the effects of 1–5 on HIF-1 activity, concentration-response studies were performed in a T47D cell-based reporter assay (Figure 1B). An iron chelator (1,10-phenanthroline, 10 μM) was included as a positive control. Compounds 1–4 activated HIF-1 in a biphasic manner. […] Hypoxia (1% O2) and chemical hypoxia (iron chelators or transition metals) represent two common stimuli that activate HIF-1 [24, 25, 26]. Further studies were performed to determine the effects of 1–5 on HIF-1 activity in the presence of other stimuli (1,10-phenanthroline, Figure 1C; hypoxia, Figure 1D). While 1–4 acted synergistically with 1,10-phenanthroline and hypoxia to activate HIF-1, a biphasic pattern of activation similar to that in the absence of stimulus […] was observed. […] Previous studies reported that psammaplins inhibit histone deacetylase (HDAC) enzymes. To determine if HDAC inhibition non-specifically activates HIF-1, concentration-response studies were conducted in T47D cells transfected with the pGL3-control plasmid. […] One possible scenario is that these compounds incur significant amount of cellular stress at higher concentrations, leading to the inhibition of gene expression in general.
Figure 1 Concentration-dependent biphasic effects of 1–4 on HIF-1 activation. (A) Structures of psammaplins isolated from Dendrilla lacunosa. (B) Concentration-response results of 1–5 in T47D cells transfected with pHRE-luc for HIF-1 activity. Test compounds were added at the increasing concentrations of 0.1, 0.3, 1, 3, 10, and 30 µM, as specified. The positive control 1,10-phenanthroline (1,10-phen) was used at 10 µM. Data shown are average ± standard deviation (n = 3). (C) Similar to described in (B) except that the pHRE-luc transfected T47D cells were exposed to test compounds in the presence of 10 µM 1,10-phen, and the data were normalized to the positive control (1,10-phen). (D) Similar to described in (C) except that hypoxic exposure (1% O2: 5% CO2: 94% N2, 16 h) was applied in place of 1,10-phen. (E) As described in (B) except that T47D cells were transfected with the pGL3-control construct. An asterisk “*” indicates p < 0.05 when compared to the controls (“Media” for B, D, and E; and “1,10-phen” for C).
To monitor HIF-1 activity, T47D cells were transfected with the pHRE3-TK-Luc construct and the cell-based luciferase reporter assay was performed as described. Cells were exposed to test compounds in the absence and presence of 1,10-phenanthroline (10 μM) or hypoxic conditions (1% O2: 5% CO2: 94% N2) for 16 h. The cells were lysed and luciferase activity determined with a commercial kit (Promega, Madison, WI, USA). For the cell-based control reporter assay, T47D cells were transfected with the pGL3-control construct (Promega, Madison, WI, USA), exposed to test compounds for 16 h, and the luciferase reporter assay performed as described.

[6] = tested on: HDAC; assay: MDA-MB-435 cell-based HDAC assay (HDAC-Glo); conditions: MDA-MB-435 cells, 30 min incubation, n = 6 pooled from two experiments
Protocol: Test compounds were added at specified concentrations to exponentially grown cells plated in 96-well plates. After 30 min incubation, the HDAC activity was determined using a commercial kit (HDAC-Glo™, Promega, Madison, WI, USA) and normalized to that of the dimethyl sulfoxide (DMSO) solvent control.
Exponentially grown cells were seeded at the density of 5000 cells/well into 96-well plates (Corning, Corning, NY, USA) and incubated overnight. Compounds dissolved in DMSO were added to achieve the specified final concentrations (total volume: 100 μL, DMSO: 0.5%). The incubation continued for 30 min at 37 °C and the HDAC activity determined using a commercial luminescent assay (HDAC-Glo™, Promega, Madison, WI, USA).

Compound: CC(/C=C/C(=O)NO)=C\[C@@H](C)C(=O)c1ccc(N(C)C)cc1 [TSA, trichostatin A]
increase in CDKN1A mRNA level [1]: 7.2 fold | effect on the levels of VEGF mRNA ([2]; concentrations tested): ≤ 20% | VEGF expression, cellular protein [3]: None of the HDAC inhibitors examined (4 and TSA) increased VEGF protein levels | VEGF expression, secreted protein [3]: None of the HDAC inhibitors examined (4 and TSA) increased VEGF protein levels | invasion of BoM spheroids into the extracellular matrix ([4]; 96 h (T96), 4 and TSA at 48 h proliferation IC50): inhibited the invasion of BoM spheroids

Compound: c1cnc2c(c1)ccc1cccnc12 [1,10-phen, 1,10-phenanthroline]
VEGF expression, mRNA ([2]; 10 μM): induced VEGF expression | VEGF expression, cellular protein [3]: induced VEGF expression | VEGF expression, secreted protein [3]: induced VEGF expression

Compound: C[C@@H]1C[C@@H]([C@H](O)CC2CC(=O)NC(=O)C2)C(=O)[C@@H](C)C1 [CHX, cycloheximide]
size of the spheroids ([4]; 96 h, in comparison to the HDAC inhibitors): more pronounced decrease in the size of the spheroids

IC50 [6]: 38 nM
Compound: O=C(NCCSSCCNC(=O)/C(Cc1cc(O)c(O)c(Br)c1)=N/O)/C(Cc1ccc(O)c(Br)c1)=N/O [Compound 3, (E,E)-psammaplin K]
HIF-1 activation (highest level) ([5]; T47D pHRE-luc, 10 μM, 16 h, no stimulus, n = 3): 10.15 ± 0.66 fold | normalized ratio of pHRE-luc/pGL3-control ([5]; T47D, 10 μM): 2.38 fold

IC50 [6]: 948 nM
Compound: O=C(NCCSSCCNC(=O)/C(Cc1cc(Br)c(O)c(-c2cc(C/C(=N\O)C(=O)NCCSSCCNC(=O)/C(Cc3ccc(O)c(Br)c3)=N/O)cc(Br)c2O)c1)=N/O)/C(Cc1ccc(O)c(Br)c1)=N/O [Compound 5, bisaprasin]
HIF-1 activation ([5]; T47D pHRE-luc, 30 μM, 16 h, no stimulus, n = 3): 2.17 ± 0.13 fold | effect on HIF-1 activity in the presence of other stimuli ([5]; T47D pHRE-luc, with 1,10-phenanthroline (10 µM) or hypoxia (1% O2), 16 h): inhibited HIF-1 activation at higher concentrations

Source: PMC6265740, “Biochemical and Anti-Triple Negative Metastatic Breast Tumor Cell Properties of Psammaplins” (Marine Drugs, 2018)
